According to ChEMBL document CHEMBL1157539, “Thousands of chemical starting points for antimalarial lead identification” (Nature, 2010):

What follows are molecules tested on Plasmodium falciparum (assay: GSK_TCMDC: Inhibition of Plasmodium falciparum 3D7 in whole erythrocytes, using parasite LDH activity as an index of growth.). Conditions: not given.
Assay type: functional, organism-based

Compound	XC50
CC(C)(C)c1cc(/C=C/C(=O)NC2CCC(CN3CCC(c4c[nH]c5ccccc45)CC3)CC2)cc(C(C)(C)C)c1O (stereo unspecified)	719 nM

Same assay, conditions: Plasmodium falciparum, 3D7

Compound	XC50
CC(=O)c1nccc(C)c1N	929 nM
Cc1nc(-c2nc(NCc3ccc4c(c3)OCO4)ncc2-c2ccsc2)sc1C	103 nM
CCc1cn2c3c(cc(C(=O)N[C@@H](Cc4cc(F)cc(F)c4)[C@H](O)CNC4CCOCC4)cc13)N(C)S(=O)(=O)CC2	33.6 nM
CCN(CC)CCN(Cc1ccc(-c2ccc(C(F)(F)F)cc2)nc1)C(=O)Cn1c(SCc2ccc(F)cc2)nc(=O)c2sccc21	840 nM
Cc1cc(N[C@@H](CC(C)C)C(=O)NCCOc2ccccc2)nc(NCCOc2ccccc2)n1	1490 nM
NCc1ccc(-c2cccc(CNC3CCN(Cc4ccccc4)CC3)c2)cc1	672 nM
O=C(/C=C/c1ccc(Cl)c(Cl)c1)NCCCCCCN1CCCN(C(=O)Nc2ccc(Cl)c(C(F)(F)F)c2)CC1	565 nM
Oc1cc2ccccc2cc1CNC1CCCCC1	586 nM
CCCOc1ccc(OCCCON2C(=N)N=C(N)NC2(C)C)cc1	3.2 nM
O=S(=O)(/C=C/c1ccccc1)N(Cc1ccc(-c2ccc(CNCCc3ccccn3)cc2)cc1)CC1CCCCN1 (stereo unspecified)	742 nM
Cc1ccccc1C1CCN(c2ccc(C(=O)NC3CC3)cn2)CC1	846 nM
CC(CCc1ccccc1)NCC(O)c1cccc([N+](=O)[O-])c1 (stereo unspecified)	858 nM
COc1ccc(O)c(C(=O)c2cnc3c(c2)c(-c2ccc(F)cc2)c(C#N)c(=O)n3C)c1	792 nM
Fc1cccc(COc2ccc(Nc3ncnc4sc(C#CCNC5CCCC5)cc34)cc2Cl)c1	782 nM
COc1cc2nc(C)nc(Nc3ccc(Cc4ccccc4)cc3)c2cc1OC	730 nM
CC(C)CCNc1nc(NCc2ccccc2)c2cc(O)ccc2n1	105 nM
CC(=O)Nc1nc(C(=O)Nc2ccc(-c3ccc(-c4nc5cc(F)ccc5[nH]4)cc3)cc2)cs1	460 nM
OCCOCCNCc1cccc(C#Cc2cc3ncnc(Nc4ccc(OCc5cccc(F)c5)c(Cl)c4)c3s2)n1	781 nM
CCC1CN2CCc3c([nH]c4ccc(OC)cc34)C2CC1CC1NCCc2cc(OC)c(OC)cc21 (stereo unspecified)	862 nM
CCC(CCON1C(N)=NC(N)=NC1(C)C)c1ccc(Cl)c(Cl)c1 (stereo unspecified)	3.2 nM
CSc1cccc(NC(=O)Nc2ccc(I)c(OCCN(C)C)c2)c1	691 nM
COC(=O)c1ccc(CC(C)NCC(O)c2ccc(Cl)c(Cl)c2)cc1 (stereo unspecified)	1000 nM
CCn1c(-c2cc(C)on2)nc2cnc(Oc3ccc(C(=O)N4CC(=O)N(C)C4C(C)(C)C)cc3)cc21 (stereo unspecified)	1820 nM
CN1CCC(C(=O)Nc2ccc(-c3cccc(-c4nc5cc(F)ccc5[nH]4)c3)cc2)CC1	792 nM

Compound	XC50
CC(C)(C)c1cc(/C=C/C(=O)NC2CCC(CN3CCC(c4c[nH]c5ccccc45)CC3)CC2)cc(C(C)(C)C)c1O (stereo unspecified)	705 nM
COc1ccc(C(=O)Cn2nc(-c3ccc(Cl)cc3)ccc2=O)c(OC)c1	498 nM
Oc1ccc(CCNc2nc(NCc3cccc(OCc4cccc(F)c4)c3)nc(N3CCNCC3)n2)cc1	1340 nM
COc1cccc(C(=O)C2CC2CN(C)CCC(O)c2ccc(Cl)c(Cl)c2)c1 (stereo unspecified)	756 nM
O=C(/C=C/c1ccc(Cl)c(Cl)c1)NCCCCN1CCCN(C(=O)Nc2ccc(Cl)c(Cl)c2)CC1	859 nM
O=C1c2ccccc2CCC1CCN1CC=C(c2c[nH]c3ccccc23)CC1 (stereo unspecified)	697 nM
C=CCOC1OC(COC(c2ccccc2)(c2ccccc2)c2ccccc2)C(OC(C)=O)C(OC(C)=O)C1NC(C)=O (stereo unspecified)	657 nM
CCc1ccc(CN2CCC(NC(=O)c3ccc(-c4ccc(N(C)C)cc4)s3)CC2)cc1	1210 nM
CC1CN(Cc2csc(Nc3ccccc3)n2)CC(C)O1 (stereo unspecified)	1020 nM
CCN1CCC(N2CCC(n3c(C)nc4cc(C(F)(F)F)ccc43)CC2)CC1	1020 nM
COc1ccc(-c2nc(NC(=O)CS(=O)(=O)c3ccc(F)cc3)sc2C)cc1	243 nM
CN(C)CCNCc1ccc(-c2ccc(-c3nc4ccccc4[nH]3)s2)cc1	569 nM
NC(=O)N1CCN(Cc2ccc(Br)cc2)CC1	619 nM
CC(C)Cc1cn(-c2nc(-c3nc4ccccc4[nH]3)cs2)c2cc(Cl)ccc12	483 nM
COc1ccc(-c2nc3c(N)nc(N)nc3nc2-c2ccccc2Cl)cc1.COc1ccc(-c2nc3nc(N)nc(N)c3nc2-c2ccccc2Cl)cc1	549 nM
Oc1ccc2ccccc2c1CNC1CCCCCC1	933 nM
Oc1ccc(Cc2ccccc2)cc1CNC1CCCCC1	188 nM
COc1ccc2nccc([C@@H](O)CN3CCC(NCc4ccc5nc[nH]c(=O)c5c4)CC3)c2c1	921 nM
COc1cc(Nc2ccc3cc(S(=O)(=O)N4CCCCC4C)ccc3n2)cc(OC)c1OC (stereo unspecified)	1240 nM
CCN(CC)CCCC(C)N=c1cc(C=Cc2ccccc2Cl)[nH]c2cc(Cl)ccc12 (stereo unspecified)	805 nM
Cc1nc(N)nc(N)c1Oc1cccc(Cl)c1	871 nM
Cc1[nH]c2ccc(C#N)cc2c(=O)c1Br	640 nM
OC(CNCc1ccccc1OCc1ccccc1)c1cccc(Cl)c1 (stereo unspecified)	219 nM
COc1ccc(CCN(C)CCCOc2ccc(NC(=O)COc3cccc4sc5ccccc5c(=O)c34)cc2)cc1OC	459 nM

Compound	XC50
COc1ccc2nccc(NC(=O)OC3CCC(NCc4ccc5c(n4)NC(=O)CS5)CC3)c2c1 (stereo unspecified)	924 nM
COc1cc2nc(NCCn3ccnc3C)nc(NCCc3ccccc3)c2cc1OC	727 nM
Cn1cnc(CCNC(=O)c2ccc(-c3cccc(-c4nc5ccccc5[nH]4)c3)cc2)c1	1100 nM
CCN(CC)CCN(Cc1ccc(-c2ccc(C(F)(F)F)cc2)cc1)C(=O)Cn1c(CCc2c(F)cccc2F)nc(=O)c2ccccc21	637 nM
O=C(Nc1ccc(Cl)c(Cl)c1)N1CCc2ccc(OCCCN3CCCCC3)cc2CC1	1520 nM
Nc1c(Cl)cc(C(O)CNCCCCCOCCCc2ccc(O)c3ncccc23)cc1Cl (stereo unspecified)	992 nM
Cc1cccc2nc(-c3ccc(-c4cccc(CN5CCCCC5)c4)s3)[nH]c12	468 nM
CS(=O)(=O)CCNc1cc(N2CCc3ncnc(Nc4ccc(OCc5cccc(F)c5)c(Cl)c4)c3C2)ncn1	873 nM
Cc1ccc2cc(C3NC(=O)c4ccccc4N3)c(Cl)nc2c1 (stereo unspecified)	945 nM
CC(C)(C)OC(=O)NCc1ccc(Nc2nnc(-c3ccc(OCC(=O)NC[C@@H]4CC[C@H]5C[C@@H]4C5(C)C)c([N+](=O)[O-])c3)o2)cc1	911 nM
CC(C)N1CCC(N(Cc2ccc(-c3ccc(C(F)(F)F)cc3)cc2)C(=O)Cn2c(SCc3cccc(F)c3F)nc(=O)c3ccccc32)CC1	1050 nM
COc1ccc(NC(=O)/C=C/c2ccccc2Cl)cc1OCCN1CCC(N2CCCCC2)CC1	901 nM
COc1ccc(CNc2ccnc3cc(OC)ccc23)cc1	766 nM
CN(C(=O)OCc1ccccc1)C1CCC(CCN2CCC3(CC2)C(=O)NCN3c2cccc(C(F)(F)F)c2)(c2ccccc2)CC1 (stereo unspecified)	1180 nM
Cc1cc2nc(-c3ccc(/C=C/C(=O)NCCCc4ccccc4)cc3)[nH]c2cc1C	955 nM
CCCN1CCN(CCNC(=O)c2cccc(Nc3nccc(Nc4ccc(Oc5ccccc5)cc4)n3)c2)CC1	239 nM
CCCCc1ccc2[nH]c(NC(=O)OC)nc2c1 [PARBENDAZOLE]	683 nM
COC(=O)c1ccc2nc(-c3cc(-c4cccc(-c5ccccc5)c4)cnc3N)[nH]c2c1	211 nM
CCN(CC)CCN(CCCc1ccc(-c2ccc(C(F)(F)F)cc2)cc1)C(=O)Cn1c(CCc2cccc(F)c2F)nc(=O)c2ccccc21	767 nM
c1ccc2c3c(ccc2c1)Sc1c(ccc2ccccc12)N3	1070 nM
CC(C)NCc1cccc(-c2ccc(NC(=O)c3cccc(C#N)c3)cc2)c1	324 nM
O=C(Nc1ccc2nc3n(c(=O)c2c1)CCCCC3)C(=O)N1CCN(c2ccc(F)cc2)CC1	636 nM
